Experimental data from US11485736B2 (KSQ Therapeutics, Inc., priority 2018, dated 2022).
Like-named read-outs stand apart in the source and are kept apart here.

What was measured:
[1] = Liver microsomal stability, human liver microsomes; type: in vitro ADME; conditions: 1 μM compound, NADPH, read-out: t1/2 (min) in HLM
Protocol: (§1) Certain Compounds of the Disclosure were assessed for ADME metabolic stability in human liver microsomes (HLM) and rat liver microsomes (RLM).
(§2) Samples were prepared by adding 222.5 μL of a master solution (100 mM phosphate buffer and 1 mg/mL liver microsomes (HLM or RLM)) and 25 μL of a 10 mM NADPH solution to incubation plates, which were then warmed for 10 min. Each compound was separately dissolved in DMSO to prepare 10 mM stock solutions, which were then diluted to 100 μM with acetonitrile. A reaction was started by adding 2.5 μL of the 100 μM solution of each compound to separate incubation plates such that the final concentration of for each compound in each plate was 1 μM.
(§3) 25 μL aliquots of each sample were taken at 0.5, 5, 10, 15, 20 and 30 minutes, and the reaction was stopped by adding 5 volumes of cold acetonitrile with IS (100 nM alprazolam, 200 nM caffeine and 100 nM tolbutamide). The samples were then centrifuged at 3,220 G for 30 minutes, and 100 μL of the supernatant fluid was mixed with 100 μL of ultra-pure H2O.
(§4) The samples were then analyzed by LC-MS/MS. Peak areas were determined from extracted ion chromatograms. Slope values (k) were determined by linear regression of the natural logarithm of the remaining percentage of the compound vs. incubation time curve. […] The in vitro half-life (min) was converted into the in vitro intrinsic clearance (in vitro CLint, in μL/min/mg protein) using the following equation: […]

[2] = Liver microsomal stability, rat liver microsomes; type: in vitro ADME; conditions: 1 μM compound, NADPH, read-out: t1/2 (min) in RLM
Protocol: as §1, §2, §3, §4

[3] = ADME solubility determination at pH 2.0 and pH 7.4; type: physicochemical; conditions: aqueous buffer, thermodynamic from solid, LC-MS/MS
Protocol: Certain Compounds of the Disclosure were assessed for ADME solubility at pH 2.0 and pH 7.4.
Stock solutions were prepared by adding each compound to DMSO at a concentration of 10 mM. Samples were prepared by adding 50 μL of each stock solution to separate vials. The vials were loaded onto a 96-well rack and dried. 500 μL of Phosphate Buffered Saline (PBS) pH 7.4 or PBS pH 2.0 were added into each vial. The vials were then shaken at 25° C. and 1,100 rpm for 24 hours.
After 24 hours, the vials were centrifuged at 3220 G and 25° C. for 30 minutes. The supernatant fluid was analyzed by LC-MS/MS against a standard of known concentration. The solubility of each sample was then calculated using the equation below:
[formula] where DF is the dilution factor.

[4] = PBS pH 2.0, shaken at 25° C. for 24 hours, read-out: Solubility at pH 2.0
[5] = PBS pH 7.4, shaken at 25° C. for 24 hours, read-out: Solubility at pH 7.4

half-life at 1 μM [1]	half-life at 1 μM [2]	solubility at 24 h [3, 4]	solubility at 24 h [3, 5]	SMILES
> 25 min	> 25 min	< 10 µM	< 10 µM	COc1ncnc(C2CC2)c1-c1ncc2c(OC)nn([C@@H](C)c3ccc(-c4nc(C(F)(F)F)c(Br)n4C)cc3)c2n1 [Example 188, (S)-1-(1-(4-(5-bromo-1-methyl-4-(trifluoromethyl)-1H-imidazol-2-yl)phenyl)ethyl)-6-(4-cyclopropyl-6-methoxypyrimidin-5-yl)-3-methoxy-1H-pyrazolo[3,4-d]pyrimidine]
< 25 min	< 25 min	< 10 µM	< 10 µM	COc1cnn(C2CC2)c1-c1ncc2cnn(Cc3ccc(-c4nc(C(F)(F)F)cn4C)cc3)c2n1 [Example 81]
> 25 min	> 25 min	< 10 µM	< 10 µM	COc1ncnc(C2CC2)c1-c1ncc2cnn(Cc3ccc(-c4cn(C(C)C)c(C(F)(F)F)n4)cc3)c2n1 [Example 34]
< 25 min	< 25 min	> 10 µM	> 10 µM	COCC(C)n1cc(C(F)(F)F)nc1-c1ccc(Cn2ncc3cnc(-c4c(OC)ncnc4C4CC4)nc32)cc1 (stereo not shown) [Example 150, 6-(4-cyclopropyl-6-methoxypyrimidin-5-yl)-1-(4-(1-(1-methoxypropan-2-yl)-4-(trifluoromethyl)-1H-imidazol-2-yl)benzyl)-1H-pyrazolo[3,4-d]pyrimidine]
< 25 min	> 25 min	> 10 µM	> 10 µM	COc1ncnc(C2CC2)c1-c1ncc2cnn([C@@H](C)c3ccc(-c4nc(C(F)(F)F)cn4C)cc3)c2n1 (single isomer, unassigned) [Example 92]
< 25 min	< 25 min	> 10 µM	> 10 µM	COc1cccc(C2CC2)c1-c1ncc2cnn(Cc3ccc(-c4nc(C(F)(F)F)cn4C)cc3)c2n1 [Example 11, 6-(2-cyclopropyl-6-methoxyphenyl)-1-(4-(1-methyl-4-(trifluoromethyl)-1H-imidazol-2-yl)benzyl)-1H-pyrazolo[3,4-d]pyrimidine]
< 25 min	< 25 min	> 10 µM	< 10 µM	CCn1c(-c2ccc(Cn3ncc4cnc(-c5c(OC)ncnc5C5CC5)nc43)cc2)nc(C(F)(F)F)c1OC [Example 164, 6-(4-cyclopropyl-6-methoxypyrimidin-5-yl)-1-(4-(1-ethyl-5-methoxy-4-(trifluoromethyl)-1H-imidazol-2-yl)benzyl)-1H-pyrazolo[3,4-d]pyrimidine]
< 25 min	< 25 min	> 10 µM	> 10 µM	COc1ncnc(C2CCC2)c1-c1ncc2cnn(Cc3ccc(-c4nc(C(F)(F)F)cn4C)cc3)c2n1 [Example 15]
< 25 min	< 25 min	> 10 µM	< 10 µM	COc1ncnc(C2CC2(C)C)c1-c1ncc2cnn(Cc3ccc(-c4nc(C(F)(F)F)cn4C(C)C)cc3)c2n1 (stereo not shown) [Example 108]
> 25 min	> 25 min	< 10 µM	< 10 µM	CCn1c(-c2ccc(Cn3nc(OC)c4cnc(-c5c(OC)ncnc5C5CC5)nc43)cc2)nc(C(F)(F)F)c1Br [Example 189]
> 25 min	> 25 min	< 10 µM	< 10 µM	COc1ncnc(C2(C)CC2)c1-c1ncc2cnn(Cc3ccc(-n4nc(C(F)(F)F)cc4OC)cc3)c2n1 [Example 106]
> 25 min	> 25 min	< 10 µM	< 10 µM	COc1ncnc(C2CC2)c1-c1ncc2cnn(Cc3ccc(-c4nc(C(F)(F)F)cn4C)cc3F)c2n1 [Example 20]
< 25 min	> 25 min	> 10 µM	> 10 µM	COc1ncnc(C(C)(C)F)c1-c1ncc2cnn(Cc3ccc(-c4nc(C(F)(F)F)cn4C)cc3)c2n1 [Example 110]
< 25 min	< 25 min	< 10 µM	< 10 µM	CCn1cc(C(F)(F)F)nc1-c1ccc(Cn2ncc3cnc(-c4c(OCCF)ncnc4C4CC4)nc32)cc1 [Example 54]
> 25 min	> 25 min	< 10 µM	< 10 µM	COc1ncnc(C2CC2)c1-c1ncc2cnn(Cc3ccc(-c4nc(C(F)(F)F)oc4C)cc3)c2n1 [Example 127]
< 25 min	> 25 min	> 10 µM	> 10 µM	COc1ncnc(C2CC2)c1-c1ncc2cnn(Cc3ccc(-c4nc(C(F)(F)F)cn4C)cc3)c2n1 [Example 12, 6-(4-cyclopropyl-6-methoxypyrimidin-5-yl)-1-(4-(1-methyl-4-(trifluoromethyl)-1H-imidazol-2-yl)benzyl)-1H-pyrazolo[3,4-d]pyrimidine]
< 25 min	< 25 min	> 10 µM	> 10 µM	COc1ncnc(C2CC2)c1-c1ncc2cnn(Cc3ccc(-c4nc(C(F)(F)F)cn4C4CCOC4)cc3)c2n1 (stereo not shown) [Example 146]
> 25 min	< 25 min	> 10 µM	> 10 µM	COc1ncnc(C2CC2)c1-c1ncc2nnn(Cc3ccc(-c4nc(C(F)(F)F)cn4C)cc3)c2n1 [Example 215, 5-(4-cyclopropyl-6-methoxypyrimidin-5-yl)-3-(4-(1-methyl-4-(trifluoromethyl)-1H-imidazol-2-yl)benzyl)-3H-[1,2,3]triazolo[4,5-d]pyrimidine]
< 25 min	< 25 min	> 10 µM	> 10 µM	CCn1cc(C(F)(F)F)nc1-c1ccc([C@H](C)n2ncc3cnc(-c4c(OC)ncnc4C(C)C)nc32)cc1 [Example 117]
< 25 min	< 25 min	> 10 µM	< 10 µM	CCn1cc(C(F)(F)F)nc1-c1ccc([C@H](C)n2ncc3cnc(-c4c(OC)ncnc4C4CCC4)nc32)cc1 (single isomer, unassigned) [Example 99]
< 25 min	< 25 min	> 10 µM	< 10 µM	CCn1cc(C(F)(F)F)nc1-c1ccc(C(C)n2ncc3cnc(-c4c(OC)ncnc4C(C)C)nc32)cc1F (stereo not shown) [Example 116]
> 25 min	> 25 min	< 10 µM	< 10 µM	COc1ncnc(C2CC2)c1-c1ncc2c(OC)nn([C@@H](C)c3ccc(-c4nc(C(F)(F)F)cn4CCF)cc3)c2n1 [Example 178]
< 25 min	< 25 min	> 10 µM	> 10 µM	COc1ncnc(C2(C)CC2)c1-c1ncc2cnn(Cc3ccc(-c4nc(C(F)(F)F)cn4C)cc3)c2n1 [Example 104]
< 25 min	< 25 min	> 10 µM	< 10 µM	COc1ccccc1-c1ncc2cnn(Cc3ccc(-c4nc(C(F)(F)F)cn4C)cc3)c2n1 [Example 2, 6-(2-methoxyphenyl)-1-(4-(1-methyl-4-(trifluoromethyl)-1H-imidazol-2-yl)benzyl)-1H-pyrazolo[3,4-d]pyrimidine]
> 25 min	< 25 min	< 10 µM	< 10 µM	CCn1cc(C(F)(F)F)nc1-c1ccc([C@H](C)n2ncc3cnc(-c4c(OC)ncnc4C(C)C)nc32)cc1F [Example 118]
> 25 min	> 25 min	> 10 µM	< 10 µM	COc1ncnc(C2(C)CC2)c1-c1ncc2cnn(Cc3ccc(-n4nc(C(F)(F)F)cc4C)cc3)c2n1 [Example 105]
> 25 min	> 25 min	> 10 µM	> 10 µM	COc1ncnc(C2CC2)c1-c1ncc2cnn(Cc3ccc(-c4nc(C(F)(F)F)cn4C(C)C)c(F)c3)c2n1 [Example 19]
< 25 min	< 25 min	> 10 µM	> 10 µM	COCCOc1ncnc(C2CC2)c1-c1ncc2cnn(Cc3ccc(-c4nc(C(F)(F)F)cn4C)cc3)c2n1 [Example 42]
